The results in this text go back to patent US8883963B2 (Cadila Healthcare Limited, priority 2007, dated 2014).

In this experiment the target is T1, human glucagon receptor (Homo sapiens, UniProt P47871).
T1 construct: The full-length cDNA was cloned in pcDNA3.1 (Invitrogen); expressed in transfected cells
The experiment is described as follows: In vitro human glucagon antagonist activity (inhibition of cAMP production) in CHO/human glucagon R cells. Conditions: with saturated concentration of glucagon peptide. The format is cell-based. How it is done:
The CHO-K1 cells (CRL 9618) were obtained from American Type Culture Collection (Rockville, Md.). CHO cells were grown in Ham's F12 medium containing L-Glutamine (2 mM), HEPES (25 mM), NaHCO3 (1.1 g/L) and supplemented with newborn Calf Serum (NBCS; 10%), Penicillin (50 U/ml (v/v)) and Streptomycin (50 ug/ml (v/v)). Cells were split every 3 days 1:8.
The full-length cDNA was cloned in pcDNA3.1 (Invitrogen). […] Clones expressing the receptor were generated by G418 (800 μg/ml active, Sigma) selection. The stable clones were thereafter maintained at 500 ug/ml (G418). The selected clone was used between passages 9-25 for cAMP assays.
The cells were trypsinized using 2 ml of TPVG (0.25% trypsin, 0.53 mM EDTA, 1.38-mM glucose). The trypsin was inactivated using Ham's F12 medium containing 10% NBCS and the cells were suspended in 2 ml of complete medium. […] The medium was aspirated off from the 12 well plate and the cells were washed once using Ham's F12 (plain). The cells were incubated at 37° C. with 500 ul of Ham's F12+1% BSA+0.125 mM RO-20 for 30 min. […] After the incubation, the medium was removed and cells were washed once with plain Ham's F12. Subsequently, the cells were lysed by adding 500 ul of ice cold 0.1 N HCl to each well and shaking for 30 minutes at 200 rpm. The cells were then scrapped, the lysate was collected in micro centrifuge tubes and centrifuged at 12000 rpm for 10 min to remove the debris. 300 ul of supernatant from each micro-centrifuge tube was then removed into a glass tube and dried under N2 for 30 min, for cAMP estimation. The total cAMP was estimated from the sample according to the manufacturer's protocol using Cyclic AMP immunoassay kit (R&D systems, Minneapolis. MN). The remaining supernatant is used to determine the protein concentration using micro BCA (Sigma). Data is calculated as percent of control (Vehicle: water) and expressed as Mean+SD.

Starred links: 1 amine or outer side, 2 acyl side, 3 side chain; linkers in the order of their positions; H or OH if unused. Non-standard residues stand in square brackets, D forms with d. Residues, ends and D or L forms follow the SMILES beside them. ξ: configuration not given here. *: point of attachment. X9 = CCc1cc(OC)ccc1-c1ccc(CC(NC(=S)[C@H](CC(=O)O)N*)C(=S)NC(CCCc2ccccc2F)C(N)=O)cc1; X8 = CCc1cc(OC)ccc1-c1ccc(CC(NC(=S)[C@H](CC(=O)O)N*)C(=S)NC(CCCc2ccccc2)C(N)=O)cc1; X4 = CCc1cc(OC)ccc1-c1ccc(CC(CNC(CCCc2ccccc2F)C(N)=O)N*)cc1; X7 = CCc1cc(OC)ccc1-c1ccc(CC(CNC(CCCc2ccccc2)C(N)=O)N*)cc1; ξBip(2'-Et-4'-OMe) = CCc1cc(OC)ccc1-c1ccc(CC(N)C(=O)O)cc1; X6 = O=C(C(CCCc1ccc(Cl)cc1Cl)N[*:1])[*:2]; ξαMePhe(2-F) = CC(N)(Cc1ccccc1F)C(=O)O; aThr = C[C@H](O)[C@H](N)C(=O)O; ξhhPhe = NC(CCCc1ccccc1)C(=O)O; ξαMeP = CC1(C(=O)O)CCCN1; Aib = CC(C)(N)C(=O)O; Moc = COC(=O)*

T1 sequence (P47871 26-477): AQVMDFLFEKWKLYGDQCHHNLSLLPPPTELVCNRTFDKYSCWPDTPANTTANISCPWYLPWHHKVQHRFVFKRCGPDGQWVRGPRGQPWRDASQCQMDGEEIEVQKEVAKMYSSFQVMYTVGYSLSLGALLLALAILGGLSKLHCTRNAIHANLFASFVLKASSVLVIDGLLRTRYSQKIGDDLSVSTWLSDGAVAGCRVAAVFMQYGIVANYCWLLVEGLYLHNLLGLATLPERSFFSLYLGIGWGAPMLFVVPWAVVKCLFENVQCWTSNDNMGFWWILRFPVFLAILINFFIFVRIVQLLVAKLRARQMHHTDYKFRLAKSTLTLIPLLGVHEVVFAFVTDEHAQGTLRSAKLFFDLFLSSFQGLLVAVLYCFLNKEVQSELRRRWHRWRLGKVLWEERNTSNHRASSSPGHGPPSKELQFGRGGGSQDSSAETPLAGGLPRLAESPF

As to `CCc1cc(OC)ccc1-c1ccc(CC(NC(=S)[C@H](CC(=O)O)NC(=O)[C@H](CO)NC(=O)[C@@H](NC(=O)C(C)(Cc2ccccc2F)NC(=O)[C@@H](NC(=O)CNC(=O)[C@H](CCC(N)=O)NC(=O)C(C)(C)NC(=O)[C@@H](N)Cc2c[nH]cn2)[C@H](C)O)[C@H](C)O)C(=S)NC(CCCc2ccccc2)C(N)=O)cc1` (stereo partly drawn) [compound 177] (H-H[Aib]QG[aThr][ξαMePhe(2-F)][aThr]S-X8), the “Human Glucagon receptor antagonistic activity shown as inhibition of cAMP production of Glucagon peptide” value reads like this: (1 nM test compound) 0 pmol/ml/μg prt; (10 nM test compound) 0 pmol/ml/μg prt; (100 nM test compound) 0 pmol/ml/μg prt; (1 μM test compound) 0 pmol/ml/μg prt; (10 μM test compound) 0 pmol/ml/μg prt.

As for `CCc1cc(OC)ccc1-c1ccc(CC(NC(=S)[C@H](CC(=O)O)NC(=O)[C@H](CO)NC(=O)[C@@H](NC(=O)C(C)(Cc2ccccc2F)NC(=O)[C@@H](NC(=O)CNC(=O)[C@H](CCC(N)=O)NC(=O)C(C)(C)NC(=O)[C@H](Cc2c[nH]cn2)NC(=O)OC)[C@@H](C)O)[C@@H](C)O)C(=S)NC(CCCc2ccccc2F)C(N)=O)cc1` (stereo partly drawn) [compound 172] (Moc-H[Aib]QGT[ξαMePhe(2-F)]TS-X9), the “Human Glucagon receptor antagonistic activity shown as inhibition of cAMP production of Glucagon peptide” value (1 nM test compound) came out at 4 ± 0.16 pmol/ml/μg prt; the “Human Glucagon receptor antagonistic activity shown as inhibition of cAMP production of Glucagon peptide” value (10 nM test compound) is on record as 2 ± 0.11 pmol/ml/μg prt; the “Human Glucagon receptor antagonistic activity shown as inhibition of cAMP production of Glucagon peptide” value (100 nM test compound) is given as 0 pmol/ml/μg prt; the “Human Glucagon receptor antagonistic activity shown as inhibition of cAMP production of Glucagon peptide” value (1 μM test compound) is 0 pmol/ml/μg prt; the “Human Glucagon receptor antagonistic activity shown as inhibition of cAMP production of Glucagon peptide” value (10 μM test compound) is on record as 0 pmol/ml/μg prt.

As for `CCc1cc(OC)ccc1-c1ccc(CC(NC(=O)[C@H](CC(=O)O)NC(=O)[C@H](CO)NC(=O)[C@@H](NC(=O)[C@H](Cc2ccccc2)NC(=O)[C@@H](NC(=O)CNC(=O)[C@H](CCC(N)=O)NC(=O)C2(C)CCCN2C(=O)[C@@H](N)Cc2c[nH]cn2)[C@@H](C)O)[C@@H](C)O)C(=O)NC(CCCc2ccccc2)C(N)=O)cc1` (stereo partly drawn) [compound 9] (H-H[ξαMeP]QGTFTSD[ξBip(2'-Et-4'-OMe)][ξhhPhe]-NH2), the “Human Glucagon receptor antagonistic activity shown as inhibition of cAMP production of Glucagon peptide” value by setting is: (1 nM test compound) 5 ± 0.02 pmol/ml/μg prt; (10 nM test compound) 3 ± 0.15 pmol/ml/μg prt; (100 nM test compound) 0 pmol/ml/μg prt; (1 μM test compound) 0 pmol/ml/μg prt; (10 μM test compound) 0 pmol/ml/μg prt.

For the compound `CCc1cc(OC)ccc1-c1ccc(CC(NC(=O)[C@H](CC(=O)O)NC(=O)[C@H](CO)NC(=O)[C@@H](NC(=O)[C@H](Cc2ccccc2)NC(=O)[C@@H](NC(=O)CNC(=O)[C@H](CCC(N)=O)NC(=O)[C@H](CO)NC(=O)[C@@H](N)Cc2c[nH]cn2)[C@@H](C)O)[C@@H](C)O)C(=O)NC(CCCc2ccc(Cl)cc2Cl)C(N)=O)cc1` (stereo partly drawn) [compound 51] (H-HSQGTFTSD[ξBip(2'-Et-4'-OMe)][X6]-NH2), the “Human Glucagon receptor antagonistic activity shown as inhibition of cAMP production of Glucagon peptide” value runs as follows: (1 nM test compound) 5 ± 0.09 pmol/ml/μg prt; (10 nM test compound) 3 ± 0.11 pmol/ml/μg prt; (100 nM test compound) 0 pmol/ml/μg prt; (1 μM test compound) 0 pmol/ml/μg prt; (10 μM test compound) 0 pmol/ml/μg prt.

Regarding `CCc1cc(OC)ccc1-c1ccc(CC(CNC(CCCc2ccccc2F)C(N)=O)NC[C@H](CC(=O)O)NC(=O)[C@H](CO)NC(=O)[C@@H](NC(=O)C(C)(Cc2ccccc2F)NC(=O)[C@@H](NC(=O)CNC(=O)[C@H](CCC(N)=O)NC(=O)C(C)(C)NC(=O)[C@H](Cc2c[nH]cn2)NC(C)=O)[C@H](C)O)[C@H](C)O)cc1` (single isomer, unassigned) [compound 199], the “Human Glucagon receptor antagonistic activity shown as inhibition of cAMP production of Glucagon peptide” value by setting is: (1 nM test compound) 4 ± 0.06 pmol/ml/μg prt; (10 nM test compound) 3 ± 0.11 pmol/ml/μg prt; (100 nM test compound) 0 pmol/ml/μg prt; (1 μM test compound) 0 pmol/ml/μg prt; (10 μM test compound) 0 pmol/ml/μg prt.

On to `CCc1cc(OC)ccc1-c1ccc(CC(NC(=O)[C@H](CC(=O)O)NC(=O)[C@H](CO)NC(=O)[C@@H](NC(=O)[C@H](Cc2ccccc2)NC(=O)[C@@H](NC(=O)CNC(=O)[C@H](CCC(N)=O)NC(=O)C2(C)CCCN2C(=O)[C@@H](N)Cc2c[nH]cn2)[C@@H](C)O)[C@@H](C)O)C(=O)NC(CCCc2cccc(Cl)c2)C(N)=O)cc1` (single isomer, unassigned) [compound 11], for which the “Human Glucagon receptor antagonistic activity shown as inhibition of cAMP production of Glucagon peptide” value by setting is: (1 nM test compound) 3 ± 0.04 pmol/ml/μg prt; (10 nM test compound) 0 pmol/ml/μg prt; (100 nM test compound) 0 pmol/ml/μg prt; (1 μM test compound) 0 pmol/ml/μg prt; (10 μM test compound) 0 pmol/ml/μg prt.

For the compound `CCc1cc(OC)ccc1-c1ccc(CC(CNC(CCCc2ccccc2)C(N)=O)NC(=O)[C@H](CC(=O)O)NC(=O)[C@H](CO)NC(=O)[C@@H](NC(=O)C(C)(Cc2ccccc2F)NC(=O)[C@@H](NC(=O)CNC(=O)[C@H](CCC(N)=O)NC(=O)C(C)(C)NC(=O)[C@@H](N)Cc2c[nH]cn2)[C@H](C)O)[C@H](C)O)cc1` (stereo partly drawn) [compound 189] (H-H[Aib]QG[aThr][ξαMePhe(2-F)][aThr]SD-X7), the “Human Glucagon receptor antagonistic activity shown as inhibition of cAMP production of Glucagon peptide” value was determined as 3 ± 0.12 pmol/ml/μg prt (1 nM test compound); 1 ± 0.12 pmol/ml/μg prt (10 nM test compound); 0 pmol/ml/μg prt (100 nM test compound); 0 pmol/ml/μg prt (1 μM test compound); 0 pmol/ml/μg prt (10 μM test compound).

Regarding `CCc1cc(OC)ccc1-c1ccc(CC(NC(=S)[C@H](CC(=O)O)NC(=O)[C@H](CO)NC(=O)[C@@H](NC(=O)C(C)(Cc2ccccc2F)NC(=O)[C@@H](NC(=O)CNC(=O)[C@H](CCC(N)=O)NC(=O)C(C)(C)NC(=O)[C@H](Cc2c[nH]cn2)NC(=O)OC)[C@@H](C)O)[C@@H](C)O)C(=S)NC(CCCc2ccccc2)C(N)=O)cc1` (single isomer, unassigned) [compound 170], the “Human Glucagon receptor antagonistic activity shown as inhibition of cAMP production of Glucagon peptide” value by setting is: (1 nM test compound) 6 ± 0.05 pmol/ml/μg prt; (10 nM test compound) 5 ± 0.04 pmol/ml/μg prt; (100 nM test compound) 2 ± 0.16 pmol/ml/μg prt; (1 μM test compound) 0 pmol/ml/μg prt; (10 μM test compound) 0 pmol/ml/μg prt.

`CCc1cc(OC)ccc1-c1ccc(CC(CNC(CCCc2ccccc2F)C(N)=O)NC(=O)[C@H](CC(=O)O)NC(=O)[C@H](CO)NC(=O)[C@@H](NC(=O)C(C)(Cc2ccccc2F)NC(=O)[C@@H](NC(=O)CNC(=O)[C@H](CCC(N)=O)NC(=O)C(C)(C)NC(=O)[C@@H](N)Cc2c[nH]cn2)[C@H](C)O)[C@H](C)O)cc1` (stereo partly drawn) [compound 191] (H-H[Aib]QG[aThr][ξαMePhe(2-F)][aThr]SD-X4): the “Human Glucagon receptor antagonistic activity shown as inhibition of cAMP production of Glucagon peptide” value by setting is: (1 nM test compound) 4 ± 0.05 pmol/ml/μg prt; (10 nM test compound) 2 ± 0.13 pmol/ml/μg prt; (100 nM test compound) 2 ± 0.12 pmol/ml/μg prt; (1 μM test compound) 0 pmol/ml/μg prt; (10 μM test compound) 0 pmol/ml/μg prt.
